We go through two molecules from ChEMBL document CHEMBL4043296 (J Med Chem, 2018).

For assay [1], the target named is T1, D(4) dopamine receptor (Homo sapiens, UniProt P21917).
T1 sequence (P21917 whole entry): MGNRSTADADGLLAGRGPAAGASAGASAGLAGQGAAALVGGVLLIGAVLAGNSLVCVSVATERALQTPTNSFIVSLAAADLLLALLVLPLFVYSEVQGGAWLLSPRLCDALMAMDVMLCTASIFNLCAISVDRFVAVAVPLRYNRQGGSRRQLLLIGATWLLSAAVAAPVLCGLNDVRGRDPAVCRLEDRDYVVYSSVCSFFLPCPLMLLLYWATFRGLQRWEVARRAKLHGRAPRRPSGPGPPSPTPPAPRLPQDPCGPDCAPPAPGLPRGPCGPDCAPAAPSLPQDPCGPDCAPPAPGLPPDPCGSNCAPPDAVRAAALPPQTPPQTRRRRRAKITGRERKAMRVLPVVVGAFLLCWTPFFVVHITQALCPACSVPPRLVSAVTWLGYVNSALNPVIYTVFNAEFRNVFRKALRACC
Put plainly: Displacement of [3H]N-methylspiperone from human dopamine D4 receptor expressed in HEK293 cell membranes after 1 hr by scintillation counting method. (Loss of bound radioactivity is the signal in a displacement assay; it reports binding, not function.)

Assay [2] concerns the target T2, Alpha-1A adrenergic receptor (Homo sapiens, UniProt P35348).
T2 sequence (P35348 whole entry): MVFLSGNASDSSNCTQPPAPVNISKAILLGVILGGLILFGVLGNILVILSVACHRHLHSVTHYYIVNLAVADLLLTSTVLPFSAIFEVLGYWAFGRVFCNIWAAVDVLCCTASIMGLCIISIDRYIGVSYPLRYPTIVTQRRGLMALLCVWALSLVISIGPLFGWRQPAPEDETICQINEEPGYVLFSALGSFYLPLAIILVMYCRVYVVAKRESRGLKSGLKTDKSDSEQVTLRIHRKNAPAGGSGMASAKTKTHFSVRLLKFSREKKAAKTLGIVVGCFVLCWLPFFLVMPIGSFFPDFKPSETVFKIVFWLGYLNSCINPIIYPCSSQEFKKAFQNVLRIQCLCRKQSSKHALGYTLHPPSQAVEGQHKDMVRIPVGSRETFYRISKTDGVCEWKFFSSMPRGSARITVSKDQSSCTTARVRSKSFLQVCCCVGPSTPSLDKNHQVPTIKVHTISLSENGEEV
Put plainly: Displacement of [3H]prazosin from human recombinant alpha-1A adrenergic receptor expressed in CHO cell membranes after 30 mins by liquid scintillation counting method.

Assay [3] concerns the target Sodium-dependent serotonin transporter (Rattus norvegicus, UniProt P31652). Put plainly: Displacement of [3H]-citalopram from SERT in Sprague-Dawley rat midbrain after 60 mins by scintillation counting method.
Assay [4] deals with Beta-1 adrenergic receptor (Homo sapiens, UniProt P08588). In words: Displacement of [3H]CGP12177 from human recombinant beta1 adrenergic receptor expressed in HEK293 cell membranes after 90 mins by beta counting method.
In assay [5] the target is Beta-2 adrenergic receptor (Homo sapiens, UniProt P07550). Put plainly: Displacement of [3H]CGP12177 from human recombinant beta2 adrenergic receptor expressed in HEK293 cell membranes after 90 mins by beta counting method.
Assay [6] has as its target T1, D(4) dopamine receptor. Put plainly: Antagonist activity at human SP/Myc epitope-tagged dopamine D4 receptor expressed in HEK293T cells assessed as inhibition of dopamine-induced RLuc8-fused Galphai1 activation preincubated for 15 mins followed by dopamine induction measured after 2 mins by BRET assay. It is filed as cell-based, HEK-293T. On the technique in general: BRET reads energy transfer from a luciferase to a nearby fluorophore.

The target of assay [7] is D(3) dopamine receptor (Homo sapiens, UniProt P35462). In words: Displacement of [3H]N-methylspiperone from human dopamine D3 receptor expressed in HEK293 cell membranes after 1 hr by scintillation counting method.
The species named for assay [8] is Homo sapiens. In words: Selectivity ratio of Ki for human dopamine D2 receptor to Ki for human dopamine D4 receptor.
The target in assay [9] is D(2) dopamine receptor (Homo sapiens, UniProt P14416). Put plainly: Displacement of [3H]N-methylspiperone from human dopamine D2 receptor expressed in HEK293 cell membranes after 1 hr by scintillation counting method.
The target of assay [10] is Sigma non-opioid intracellular receptor 1 (Cavia porcellus, UniProt Q60492). Put plainly: Displacement of [3H](+)-pentazocine from sigma1 receptor in Hartley guinea pig brain cortex after 120 mins by scintillation counting method.
Assay [11] deals with T3, Alpha-1B adrenergic receptor (Homo sapiens, UniProt P35368).
T3 sequence (P35368 whole entry): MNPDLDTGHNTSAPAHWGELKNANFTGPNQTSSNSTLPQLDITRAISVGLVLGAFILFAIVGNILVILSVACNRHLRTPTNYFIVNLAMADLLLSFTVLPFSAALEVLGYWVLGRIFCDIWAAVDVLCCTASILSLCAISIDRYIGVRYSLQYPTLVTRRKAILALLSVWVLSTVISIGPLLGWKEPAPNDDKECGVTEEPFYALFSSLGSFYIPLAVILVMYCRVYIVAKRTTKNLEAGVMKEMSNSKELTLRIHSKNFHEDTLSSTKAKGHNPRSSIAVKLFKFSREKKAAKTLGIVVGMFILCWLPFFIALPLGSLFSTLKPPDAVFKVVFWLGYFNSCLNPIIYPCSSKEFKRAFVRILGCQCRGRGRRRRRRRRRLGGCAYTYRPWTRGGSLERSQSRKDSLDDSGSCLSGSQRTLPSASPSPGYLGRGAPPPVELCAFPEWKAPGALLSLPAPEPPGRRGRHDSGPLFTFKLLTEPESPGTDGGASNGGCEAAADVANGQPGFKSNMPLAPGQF
Put plainly: Displacement of [3H]prazosin from human recombinant alpha-1B adrenergic receptor expressed in CHO cell membranes after 30 mins by liquid scintillation counting method.

Assay [12] has as its target Sodium-dependent dopamine transporter (Rattus norvegicus, UniProt P23977). In words: Displacement of [3H]WIN 35,428 from DAT in Sprague-Dawley rat striatum after 120 mins by scintillation counting method.
For assay [13], the target named is T1, D(4) dopamine receptor. In words: Antagonist activity at human SP/Myc epitope-tagged dopamine D4 receptor expressed in HEK293T cells assessed as inhibition of dopamine-induced mVenus-fused beta-arrestin2 recruitment preincubated for 15 mins followed by dopamine induction measured after 2 mins by BRET assay. It is filed as cell-based, HEK-293T. Background: Activated receptors often draw arrestin, which recruitment assays turn into a signal.

For assay [14], the target named is T4, Alpha-1D adrenergic receptor (Homo sapiens, UniProt P25100).
T4 sequence (P25100 whole entry): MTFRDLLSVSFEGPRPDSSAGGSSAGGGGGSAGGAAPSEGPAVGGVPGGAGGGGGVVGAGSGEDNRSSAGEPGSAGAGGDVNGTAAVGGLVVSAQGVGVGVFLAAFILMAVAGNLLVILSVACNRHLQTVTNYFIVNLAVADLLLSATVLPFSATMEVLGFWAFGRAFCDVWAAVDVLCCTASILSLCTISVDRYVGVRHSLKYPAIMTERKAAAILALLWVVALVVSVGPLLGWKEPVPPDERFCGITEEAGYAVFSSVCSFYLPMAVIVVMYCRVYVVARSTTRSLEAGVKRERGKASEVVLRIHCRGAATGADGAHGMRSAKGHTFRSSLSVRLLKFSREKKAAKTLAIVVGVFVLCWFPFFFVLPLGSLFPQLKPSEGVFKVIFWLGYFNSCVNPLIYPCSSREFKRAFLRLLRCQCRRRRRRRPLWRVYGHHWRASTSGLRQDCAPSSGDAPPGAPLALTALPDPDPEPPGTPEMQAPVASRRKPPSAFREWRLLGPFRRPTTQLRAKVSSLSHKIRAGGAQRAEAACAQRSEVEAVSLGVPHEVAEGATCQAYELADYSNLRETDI
In words: Displacement of [3H]prazosin from human recombinant alpha-1D adrenergic receptor expressed in CHO cell membranes after 30 mins by liquid scintillation counting method.

The target of assay [15] is T5, Muscarinic acetylcholine receptor M4 (Homo sapiens) (UniProt P08173).
T5 sequence (whole entry): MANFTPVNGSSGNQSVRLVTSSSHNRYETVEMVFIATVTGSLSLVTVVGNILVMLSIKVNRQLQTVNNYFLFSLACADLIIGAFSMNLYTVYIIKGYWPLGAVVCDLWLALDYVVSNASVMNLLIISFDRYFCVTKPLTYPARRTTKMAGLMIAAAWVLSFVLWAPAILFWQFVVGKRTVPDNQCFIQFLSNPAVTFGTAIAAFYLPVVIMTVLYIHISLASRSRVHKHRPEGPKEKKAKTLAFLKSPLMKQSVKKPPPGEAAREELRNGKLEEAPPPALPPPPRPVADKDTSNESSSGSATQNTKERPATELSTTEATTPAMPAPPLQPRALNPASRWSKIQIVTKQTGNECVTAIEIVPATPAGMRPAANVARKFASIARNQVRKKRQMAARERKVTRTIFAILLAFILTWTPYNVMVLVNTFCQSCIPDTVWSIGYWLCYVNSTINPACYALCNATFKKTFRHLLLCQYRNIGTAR
In words: Antagonist activity at human SP/Myc epitope-tagged muscarinic M4 receptor expressed in HEK293T cells assessed as inhibition of carbachol-induced mVenus-fused beta-arrestin2 recruitment preincubated for 15 mins followed by carbachol induction measured after 2 mins by BRET assay. The conditions noted are these: HEK-293T. Type of assay: cell-based.

Assay [16] has as its target T6, Muscarinic acetylcholine receptor M1 (Homo sapiens) (UniProt P11229).
T6 sequence (whole entry): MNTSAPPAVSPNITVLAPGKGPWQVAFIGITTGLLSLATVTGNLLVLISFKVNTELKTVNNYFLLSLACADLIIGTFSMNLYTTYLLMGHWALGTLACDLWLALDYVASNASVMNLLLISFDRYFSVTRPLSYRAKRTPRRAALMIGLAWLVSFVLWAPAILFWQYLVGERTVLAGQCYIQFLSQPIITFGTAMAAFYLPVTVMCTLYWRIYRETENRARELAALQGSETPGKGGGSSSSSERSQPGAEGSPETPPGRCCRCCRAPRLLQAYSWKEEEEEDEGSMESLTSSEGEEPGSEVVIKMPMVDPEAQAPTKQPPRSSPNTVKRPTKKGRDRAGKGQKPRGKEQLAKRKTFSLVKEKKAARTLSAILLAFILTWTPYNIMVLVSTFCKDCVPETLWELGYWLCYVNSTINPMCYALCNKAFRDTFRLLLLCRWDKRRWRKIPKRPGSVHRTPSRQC
In words: Antagonist activity at human SP/Myc epitope-tagged muscarinic M1 receptor expressed in HEK293T cells assessed as inhibition of carbachol-induced RLuc8-fused Galphaq activation preincubated for 15 mins followed by carbachol induction measured after 2 mins by BRET assay. Type of assay: cell-based. Particulars: HEK-293T.

The target in assay [17] is T6, Muscarinic acetylcholine receptor M1 (Homo sapiens). In words: Antagonist activity at human SP/Myc epitope-tagged muscarinic M1 receptor expressed in HEK293T cells assessed as inhibition of carbachol-induced mVenus-fused beta-arrestin2 recruitment preincubated for 15 mins followed by carbachol induction measured after 2 mins by BRET assay. Particulars: HEK-293T. Type of assay: cell-based.

Assay [18] addresses T5, Muscarinic acetylcholine receptor M4 (Homo sapiens). In words: Antagonist activity at human SP/Myc epitope-tagged muscarinic M4 receptor expressed in HEK293T cells assessed as inhibition of carbachol-induced RLuc8-fused Galphaq activation preincubated for 15 mins followed by carbachol induction measured after 2 mins by BRET assay. Type of assay: cell-based. The conditions noted are these: HEK-293T.

The structures appear in SMILES notation.

Sigma non-opioid intracellular receptor 1, sequence (Q60492 whole entry): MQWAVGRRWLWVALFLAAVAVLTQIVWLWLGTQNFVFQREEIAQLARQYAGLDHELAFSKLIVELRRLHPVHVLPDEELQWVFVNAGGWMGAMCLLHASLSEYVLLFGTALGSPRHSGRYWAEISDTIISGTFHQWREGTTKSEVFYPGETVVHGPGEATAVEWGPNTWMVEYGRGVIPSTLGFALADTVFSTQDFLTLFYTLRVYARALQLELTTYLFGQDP
D(3) dopamine receptor, sequence (P35462 whole entry): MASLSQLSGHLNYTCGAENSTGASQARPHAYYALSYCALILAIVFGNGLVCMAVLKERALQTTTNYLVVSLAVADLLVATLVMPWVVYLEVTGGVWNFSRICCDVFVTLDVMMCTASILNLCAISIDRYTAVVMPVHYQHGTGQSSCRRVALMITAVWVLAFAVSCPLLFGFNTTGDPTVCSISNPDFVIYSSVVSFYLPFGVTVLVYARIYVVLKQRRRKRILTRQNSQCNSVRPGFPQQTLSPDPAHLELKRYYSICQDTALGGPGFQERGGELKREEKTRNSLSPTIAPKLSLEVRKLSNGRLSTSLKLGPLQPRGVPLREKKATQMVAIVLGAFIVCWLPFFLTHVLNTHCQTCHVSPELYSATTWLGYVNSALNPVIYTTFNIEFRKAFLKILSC
Beta-2 adrenergic receptor, sequence (P07550 whole entry, the tested form may be a part): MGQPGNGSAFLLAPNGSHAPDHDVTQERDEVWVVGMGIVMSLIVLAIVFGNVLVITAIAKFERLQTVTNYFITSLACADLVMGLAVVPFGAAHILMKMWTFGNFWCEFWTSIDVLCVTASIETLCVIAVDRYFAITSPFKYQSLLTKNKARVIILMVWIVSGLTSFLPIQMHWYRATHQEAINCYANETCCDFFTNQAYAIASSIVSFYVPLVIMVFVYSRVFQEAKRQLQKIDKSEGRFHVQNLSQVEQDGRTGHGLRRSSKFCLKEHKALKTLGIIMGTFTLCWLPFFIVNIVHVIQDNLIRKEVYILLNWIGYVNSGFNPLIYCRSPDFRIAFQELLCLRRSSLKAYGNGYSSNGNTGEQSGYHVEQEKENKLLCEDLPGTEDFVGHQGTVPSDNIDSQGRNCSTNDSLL
Sodium-dependent serotonin transporter, sequence (P31652 whole entry): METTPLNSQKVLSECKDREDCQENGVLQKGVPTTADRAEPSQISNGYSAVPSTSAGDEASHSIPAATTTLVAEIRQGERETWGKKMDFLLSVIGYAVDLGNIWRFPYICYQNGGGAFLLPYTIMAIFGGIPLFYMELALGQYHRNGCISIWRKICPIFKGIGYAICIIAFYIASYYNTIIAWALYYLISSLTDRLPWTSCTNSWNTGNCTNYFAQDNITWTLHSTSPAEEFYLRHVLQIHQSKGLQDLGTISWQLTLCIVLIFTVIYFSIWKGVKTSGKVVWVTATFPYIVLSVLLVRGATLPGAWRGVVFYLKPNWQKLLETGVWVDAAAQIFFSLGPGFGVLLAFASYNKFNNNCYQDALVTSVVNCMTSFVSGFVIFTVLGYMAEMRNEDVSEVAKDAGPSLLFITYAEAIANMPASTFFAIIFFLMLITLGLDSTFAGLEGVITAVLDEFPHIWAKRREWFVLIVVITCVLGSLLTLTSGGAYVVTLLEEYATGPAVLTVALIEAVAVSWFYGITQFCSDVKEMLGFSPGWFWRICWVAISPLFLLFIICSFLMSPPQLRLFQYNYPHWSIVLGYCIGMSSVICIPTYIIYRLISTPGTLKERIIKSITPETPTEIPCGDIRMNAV
Sodium-dependent dopamine transporter, sequence (P23977 whole entry, the tested form may be a part): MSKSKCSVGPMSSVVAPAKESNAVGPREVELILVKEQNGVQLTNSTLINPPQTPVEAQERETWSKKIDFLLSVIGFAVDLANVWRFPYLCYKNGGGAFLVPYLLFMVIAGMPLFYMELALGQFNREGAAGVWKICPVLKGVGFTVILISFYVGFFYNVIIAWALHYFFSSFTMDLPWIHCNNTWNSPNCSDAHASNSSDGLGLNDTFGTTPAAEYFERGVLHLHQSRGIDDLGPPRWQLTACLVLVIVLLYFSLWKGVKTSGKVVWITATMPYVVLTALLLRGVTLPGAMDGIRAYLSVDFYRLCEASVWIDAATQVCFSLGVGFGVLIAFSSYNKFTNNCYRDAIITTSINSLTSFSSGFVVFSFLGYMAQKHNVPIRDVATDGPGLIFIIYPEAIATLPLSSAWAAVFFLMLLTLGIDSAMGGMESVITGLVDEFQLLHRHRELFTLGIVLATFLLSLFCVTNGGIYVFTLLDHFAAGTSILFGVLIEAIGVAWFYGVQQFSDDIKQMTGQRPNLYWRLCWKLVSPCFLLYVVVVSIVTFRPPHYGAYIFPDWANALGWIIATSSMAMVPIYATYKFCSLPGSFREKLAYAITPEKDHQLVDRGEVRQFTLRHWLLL
D(2) dopamine receptor, sequence (P14416 whole entry): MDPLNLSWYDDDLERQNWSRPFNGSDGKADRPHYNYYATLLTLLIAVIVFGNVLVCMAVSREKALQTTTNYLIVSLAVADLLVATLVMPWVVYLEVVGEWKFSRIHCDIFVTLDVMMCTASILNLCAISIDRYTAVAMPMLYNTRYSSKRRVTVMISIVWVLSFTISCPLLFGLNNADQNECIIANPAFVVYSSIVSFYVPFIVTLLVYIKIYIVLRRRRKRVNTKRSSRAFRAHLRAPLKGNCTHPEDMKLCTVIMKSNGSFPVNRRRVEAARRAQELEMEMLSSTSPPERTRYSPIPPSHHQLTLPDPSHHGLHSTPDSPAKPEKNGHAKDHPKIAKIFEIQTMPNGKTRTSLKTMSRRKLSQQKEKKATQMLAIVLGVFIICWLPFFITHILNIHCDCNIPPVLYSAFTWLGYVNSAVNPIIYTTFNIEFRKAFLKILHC
Beta-1 adrenergic receptor, sequence (P08588 whole entry): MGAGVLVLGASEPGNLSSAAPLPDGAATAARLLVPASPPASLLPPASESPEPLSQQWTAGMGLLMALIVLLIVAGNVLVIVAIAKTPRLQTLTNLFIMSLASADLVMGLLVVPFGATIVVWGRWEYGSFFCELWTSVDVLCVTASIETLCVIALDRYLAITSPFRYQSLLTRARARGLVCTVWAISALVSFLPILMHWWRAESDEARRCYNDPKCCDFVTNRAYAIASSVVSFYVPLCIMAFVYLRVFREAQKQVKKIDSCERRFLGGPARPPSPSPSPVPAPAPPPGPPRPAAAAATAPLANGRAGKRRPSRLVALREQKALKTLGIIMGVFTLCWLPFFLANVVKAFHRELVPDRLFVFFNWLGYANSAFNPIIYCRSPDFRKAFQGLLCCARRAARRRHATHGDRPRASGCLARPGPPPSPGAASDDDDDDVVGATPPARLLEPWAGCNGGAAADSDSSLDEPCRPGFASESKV

Turning to `CCCCC1CCN(CCCN2C(=O)CCc3ccccc32)CC1`, the Ki (in general, a measure of affinity in units of concentration, obtained from inhibition or displacement) is 0.977 nM in [1]; 437 nM in assay [2]; 8910 nM in assay [3]; 47900 nM in assay [4]; 43700 nM in [5]; 617 nM in [7]. The Ki in [9] is 676 nM; in assay [10], 7.24 nM; in assay [11], 776 nM; in assay [12], 3390 nM; in assay [14], 1000 nM. For the same molecule, the IC50 (in general, the midpoint of a concentration-inhibition curve) in assay [6] is 117 nM; in [13], 6.03 nM. Further, in [8], the Ratio Ki stood at 691.
Turning to `CN1[C@@H]2C[C@@H](OC(=O)[C@H](CO)c3ccccc3)C[C@H]1[C@@H]1O[C@H]12`, the Imax in assay [15] worked out at 73%; in [16], 71%; in assay [17], 76%; in assay [18] it was 79%.
